In patent US9629893B2, “Agent derived from tortoise spleen stimulating mammalian hemopoiesis” (BMR Solutions Ltd., priority 2003, dated 2017):

Experiments:
[1] = system: Whole body irradiated C57Bl/6J mice; assay: Ex vivo BMC treatment with FTGN, transplantation into whole body irradiated mice; format: in vivo
Experimental: Mice that were whole-body irradiated with a dose of 7.5 Gy (which is normally considered a lethal dose), were transplanted by intravenous injection with donor's bone marrow cells preincubated ex vivo with different concentrations of the synthetic tetrapeptide.
Bone marrow cells (BMC) were transplanted into mice by intravenous injection, usually 60,000 cells in 0.3 ml of PBS buffer after 2 hours incubation at 37° C. with the examined agent.
Mice spleen colonies (CFUs) were counted using the method of Till and McCulloch [Till J. E. and McCulloch E. A. Radiation Res. (1961) 14: 213] on 9th, 11th and 14th days after irradiation.
CFUc were assayed in semi-solid medium using 2×10^4 cells/plate.
Donor normal BMC (4-6×10^6 cells/nil) from C57 Bl/6J mice were incubated with different concentrations of FTGN tetrapeptide (0.05; 0.1; 0.5; 1.0; 10 and 50 μg/ml) for two hours. Whole body irradiated (7.0 Gy) C57Bl/6J mice were intravenously injected with 6×10^4 treated or control cells. The recovery of the hematopoietic system in the transplanted mice was evaluated from the 4th to the 30th day post-irradiation.

Bone marrow cells = assay: In vitro incubation of BM cells with FTGN, cloning in methylcellulose medium (myeloid colonies); format: cell-based, mice; details: 10 μg/ml, 2 hours; for number of colonies: vs no tetrapeptide
Experimental: FIG. 7a-c: FTGN tetrapeptide biological activity tested in vitro. BM cells were incubated in vitro in RPMI medium in the presence (10 μg/ml) or absence of FTGN tetrapeptide for 2 hours. Cells were washed and cloned in methylcellulose-containing medium.
Bone marrow cells from normal (non irradiated) mice (4-6×10^6 cells/ml) were incubated for 2 hours with 10 μg/ml tetrapeptide; the cells were washed and cloned in cytokine-supplemented methylcellulose semi-solid medium.
Myeloid colonies formed after two weeks were counted.

[2] = system: Whole body irradiated C57Bl/6J mice; assay: Ex vivo BMC treatment with FTGN, transplantation into whole body irradiated mice; format: in vivo; details: 7.5 Gy, treated vs untreated mice (summary)
[3] = FTGN tetrapeptide stability (HPLC); format: physicochemical
Experimental: FIG. 6a: HPLC chromatogram of FTGN tetrapeptide reconstituted in water after storage at −10° C. for one year.
FIG. 6c: HPLC chromatogram of FTGN tetrapeptide reconstituted in serum and incubated at 37° C. during 4 hours.
Dry freeze long term storage of the FTGN oligopeptide preserved its structural (FIG. 6a) and biological activities. The dry frozen tetrapeptide conserved its physical characteristics after reconstitution in purified water or serum (FIG. 6c) and was stable after four hours of incubation at 37° C.

Irradiated mice (6.5 Gy) = assay: In vivo treatment of irradiated mice with FTGN; details: one or two intravenous 50 μg injections (2 or 2 and 24 hours post-irradiation), one month later
Experimental: Irradiated mice (6.5 Gy) were treated in vivo with the FTGN tetrapeptide. Thirty days after treatment BMC were counted.
Irradiated mice (6.5 Gy) were treated in vivo with the FTGN tetrapeptide. Thirty days after treatment CFU from BM were counted.
Irradiated mice (6.5 Gy) were treated with one or two intravenous 50 μg FTGN tetrapeptide injections (2 or 2 and 24 hours post-irradiation). BM nucleated cells count (FIG. 17) and CFUc (FIG. 18) were examined one month later.

[4] = system: Whole body irradiated (7.0 Gy) C57Bl/6J mice; assay: Optimal FTGN ex vivo treatment concentration, normal or irradiated donor BMC transplanted into irradiated mice; format: in vivo
Experimental: (§1) Total body irradiated mice (7.0 Gy) were injected with 6×10^4 BMC previously treated with FTGN tetrapeptide at different concentrations (0.1, 0.5, 1.0, 10.0 and 50.0 μg/ml). Spleen colonies were measured 9 days after irradiation and compared to mice transplanted with BMC incubated only with PBS.
as §1, with “Bone marrow cells from femur” for “Spleen colonies”, “counted 4,” for “measured”, “9 and 16” for “9”
Donor BM cells incubated ex vivo in RPMI medium in the presence (10 μg/ml) or absence of FTGN tetrapeptide for 2 hours were transplanted into irradiated recipient mice (7.0 Gy.). Twenty days after transplant BMC/bone were counted.
In order to elucidate the optimal FTGN tetrapeptide treatment concentration needed to achieve maximum recovery of radiation damaged BMC, two sets of donor cells were examined. Donor BMC (4-6×10^6 cells/ml) from normal untreated C57 Bl/6J mice and from in vivo irradiated mice (4.5 Gy) collected 24 hours post-irradiation, were incubated for two hours with different concentrations of FTGN tetrapeptide (0.05; 0.1; 0.5; 1.0; 10 and 50 μg/ml). Whole body irradiated (7.0 Gy) C57Bl/6J mice were intravenously injected with 6×10^4 of each different donor treated cells or with control cells. The recovery of the hematopoietic system in the transplanted mice was evaluated from the 4th to the 30th day post-irradiation.

[5] = system: Mice irradiated with a high lethal dose (10 Gy); assay: Survival of lethally irradiated mice (10 Gy) transplanted with BM cells treated with FTGN; format: in vivo; details: 6×10^4 cells incubated one hour with 10 μg/ml, 30 days post-transplant
Experimental: Lethally irradiated mice (10 Gy.) were transplanted with 60.000 donor BM cells previously incubated for 1 hour in the presence ([…]) or absence of FTGN tetrapeptide. Mice survival was pursue during 30 days and compared to control irradiated mice untreated or mice that were transplanted with untreated donor BMC.
Mice irradiated with a high lethal dose (10 Gy) were injected with 6×10^4 cells previously incubated for one hour with 10 μg/ml FTGN tetrapeptide. Mice survival was surveyed for a 30 days period post-transplant.

[6] = side effects in patients; cited from earlier work
[7] = cited from earlier work
[8] = 7.5 Gy, treated vs untreated mice (summary)
[9] = 9th day, vs mice transplanted with non-treated cells

For FTGN (listed as Testudo horsfieldi), the spleen weight ([1]; 4th day after transplantation, vs control) was “No difference”, the “number of bone marrow cells (BMC)” value [1, 8] was “increased” and the “number of white blood cells (WBC)” value [1, 8] was “increased”. For the same compound, the spleen growth [1, 8] was “enhanced spleen growth”, the spleen colonies number [1, 9] was “augmented” and the spleen weight [1, 9] was “augmented”. For the same compound, the “peripheral blood white cells counts (WBC)” value ([1]; 16th day) was “improved”, the “total number of nucleated bone marrow cells per femur” value ([1]; 16th day) was “doubled” and the spleen weight ([1]; 16th day, relative to control group) was “lower”. The “colony-forming cells (CFUbm) in the bone marrow” value ([1]; semi-solid medium, 9th and 16th day) was “improvement when low concentrations of the oligopeptide were used”, the myeloid colony number (Bone marrow cells; BM cells from normal (non irradiated) mice, colonies after two weeks) was “increased colony number” and the number of colonies (Bone marrow cells; ex vivo irradiated cells (4.5 Gy)) was “larger number of colonies”. The number of colonies (Bone marrow cells; in vivo irradiated cells (4.5 Gy)) was “larger number of colonies”, the “number of spleen colonies” value [2] was “substantially enhanced” and the “structural and biological activities after dry freeze long term storage” value ([3]; dry freeze storage, −10° C. for one year, reconstituted in water) was “preserved”. For the same compound, the “stability after reconstitution in purified water or serum” value ([3]; four hours of incubation at 37° C.) was “stable”, the “BM repopulation (BM nucleated cells count and CFUc)” value (Irradiated mice (6.5 Gy)) was “increased the BM repopulation” and the “ex vivo treatment dose giving the greatest number of nucleated cell in BM” value ([4]; 4, 9 and 16 days after irradiation, 0.05-50 μg/ml tested) was 1 to 10 µg/mL. For the same compound, the “ex vivo treatment dose giving the highest spleen colony forming units (CFUs) count” value ([4]; 9th day, 0.05-50 μg/ml tested) was 1 to 10 µg/mL, the “BM repopulation activity after transplant” value ([4]; donor cells normal or from irradiated (4.5 Gy) mouse, 10 μg/ml, 2 hours) was “accelerated” and the survival [5] was 100%.

For NCCCNCCSP(=O)(O)O [amifostine], the “patients with nausea and vomiting” value [6] is given as “approximately 53%” and the “stability at room temperature once reconstituted” value [7] is given as “quite limited”.
